Test systems include RXF 393; NCI/ADR-RES; M14; HL-60; UACC-62; RPMI-8226; SF-268; MOLT-4; EKVX; UO-31; COLO 205; HCT-116; OVCAR-8; SK-MEL-28; SF-539; IGROV-1; SN12C; NCI-H522; SK-OV-3; HOP-92.
Holding throughout (assay): growth of human tumour cells (NCI), 48 h

The structures appear in SMILES notation.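 The compound was tested at five concentrations on cells cultured in 96-well plates, with a 48-hour exposure period. The concentration for 50% growth inhibition is given as GI50.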 Calls of active or inactive are those of the source. No stated cut-off is given here; in the data, active = GI50 up to about 1.1 µM and inactive = higher. Where only a bound is given, the exact number is not on record here.

In the case of `COC(=O)CC(c1cn(S(=O)(=O)c2ccc(C)cc2)c2ccccc12)C1C[C@@H](C(=O)OC)N(C(=O)OC(C)(C)C)C1=O` (stereo partly drawn), the GI50 in the experiment on RXF 393 was 9.79 µM (inactive); in the experiment on NCI/ADR-RES it was 4.89 µM (inactive); in the experiment on M14, > 100 µM (inactive); in the experiment on HL-60, > 100 µM (inactive); in the experiment with UACC-62 it was 55.6 µM (inactive); with RPMI-8226, 8.77 µM (inactive). The GI50 in the experiment with SF-268 is 53.6 µM (inactive); in the experiment on MOLT-4 it was 3.91 µM (inactive); in the experiment with EKVX it was > 100 µM (inactive); in the experiment with UO-31, 45.6 µM (inactive); with COLO 205, 26.7 µM (inactive); in the experiment on HCT-116, 14.9 µM (inactive). The GI50 in the experiment on OVCAR-8 was 43.4 µM (inactive); in the experiment on SK-MEL-28 it was > 100 µM (inactive); in the experiment on SF-539, 7.66 µM (inactive); with IGROV-1 it was 16.4 µM (inactive); in the experiment on SN12C, 32.1 µM (inactive); in the experiment with NCI-H522, 55.3 µM (inactive).

For `CCOC(OCC)C(CCc1ccccc1)c1c(N)nc(N)[nH]c1=O` (stereo not drawn), the GI50 was 57.7 µM (inactive) in the experiment on RXF 393; > 100 µM (inactive) in the experiment on NCI/ADR-RES; 25.9 µM (inactive) with SK-OV-3; 80.5 µM (inactive) with M14; 25.2 µM (inactive) in the experiment on HL-60; 46.1 µM (inactive) in the experiment on UACC-62. In addition, the GI50 was 38.6 µM (inactive) in the experiment with RPMI-8226; 52 µM (inactive) in the experiment on SF-268; 29.6 µM (inactive) in the experiment on HOP-92; 34.3 µM (inactive) in the experiment with MOLT-4; 3.76 µM (inactive) with EKVX; 34.8 µM (inactive) with UO-31. For the same compound, the GI50 was 17.4 µM (inactive) in the experiment on COLO 205; 65.3 µM (inactive) with HCT-116; > 100 µM (inactive) in the experiment on OVCAR-8; > 100 µM (inactive) in the experiment on SK-MEL-28; > 100 µM (inactive) in the experiment with SF-539; 37.1 µM (inactive) in the experiment with IGROV-1. In addition, the GI50 in the experiment on SN12C is 56.8 µM (inactive).

Turning to `CC(=O)c1c(O)nnc(-c2ccc(Cl)cc2)c1-c1ccc(Cl)cc1`, the GI50 in the experiment on RXF 393 is 38.9 µM (inactive); in the experiment with NCI/ADR-RES, 30.1 µM (inactive); with SK-OV-3, 40.8 µM (inactive); in the experiment with M14 it was 65.6 µM (inactive); in the experiment with HL-60, 25 µM (inactive); in the experiment with UACC-62, 12.4 µM (inactive). Further, the GI50 is 23.2 µM (inactive) with RPMI-8226; > 100 µM (inactive) with SF-268; 52.7 µM (inactive) with HOP-92; 48.5 µM (inactive) with MOLT-4; 53.3 µM (inactive) with EKVX; 29.2 µM (inactive) with COLO 205. In addition, the GI50 in the experiment with HCT-116 is 58.2 µM (inactive); in the experiment with OVCAR-8, 31.5 µM (inactive); in the experiment with SK-MEL-28 it was 41.9 µM (inactive); with SF-539, 22.7 µM (inactive); in the experiment on IGROV-1, 26.2 µM (inactive); with SN12C, 22.3 µM (inactive).

For `COc1ccc2cc(NC(=O)N/N=C\c3ccc([N+](=O)[O-])cc3)ccc2c1`, the GI50 with RXF 393 is 20.4 µM (inactive); with NCI/ADR-RES, 23.8 µM (inactive); in the experiment on SK-OV-3, 31 µM (inactive); with M14, 30.8 µM (inactive); in the experiment on HL-60, 45 µM (inactive); in the experiment on UACC-62, 20.9 µM (inactive). The GI50 was 35.7 µM (inactive) with RPMI-8226; 20.1 µM (inactive) in the experiment on SF-268; 39.5 µM (inactive) with HOP-92; > 100 µM (inactive) with MOLT-4; 81.8 µM (inactive) in the experiment on EKVX; 17.1 µM (inactive) in the experiment on UO-31. Moreover, the GI50 with COLO 205 was > 100 µM (inactive); in the experiment with HCT-116, 53.3 µM (inactive); with OVCAR-8 it was 21.8 µM (inactive); in the experiment on SK-MEL-28 it was > 100 µM (inactive); in the experiment with IGROV-1, 23.7 µM (inactive); in the experiment with SN12C, 86.3 µM (inactive). Also, the GI50 in the experiment on NCI-H522 is 16 µM (inactive).

For `CC(=O)Nc1nc(Cl)cc(NCC2(CO)CCC2)n1`, the GI50 with RXF 393, in the experiment with NCI/ADR-RES, in the experiment with SK-OV-3, in the experiment with M14, with HL-60 and with UACC-62 was > 100 µM (inactive) throughout. For the same compound, the GI50 with RPMI-8226, with SF-268, in the experiment with HOP-92, in the experiment on MOLT-4, in the experiment on EKVX and with UO-31 was > 100 µM (inactive) throughout. Also, the GI50 with COLO 205, in the experiment on HCT-116, in the experiment on OVCAR-8, with SK-MEL-28, in the experiment with IGROV-1 and in the experiment on SN12C was > 100 µM (inactive) throughout. Moreover, the GI50 in the experiment with NCI-H522 was > 100 µM (inactive).

`COc1ccc(C(=O)/C=C2\c3ccccc3C(=O)N2C)cc1`: the GI50 in the experiment with RXF 393 is 22.9 µM (inactive); with NCI/ADR-RES, 38 µM (inactive); in the experiment with SK-OV-3, 74.8 µM (inactive); with M14, 48.6 µM (inactive); in the experiment on UACC-62, 41.1 µM (inactive); with RPMI-8226, 41.5 µM (inactive). Also, the GI50 with SF-268 is 61.2 µM (inactive); in the experiment with HOP-92, 24.5 µM (inactive); with MOLT-4, 58.7 µM (inactive); in the experiment on EKVX, 26.8 µM (inactive); in the experiment with UO-31, 44.3 µM (inactive); in the experiment on COLO 205, 55 µM (inactive). Also, the GI50 in the experiment on HCT-116 was 59.3 µM (inactive); in the experiment with OVCAR-8, 64.4 µM (inactive); in the experiment on SK-MEL-28 it was > 100 µM (inactive); in the experiment with SF-539, 64 µM (inactive); with IGROV-1, 28 µM (inactive); with SN12C, 58.5 µM (inactive). In the experiment with NCI-H522, the GI50 was 31.9 µM (inactive).

Regarding `N#Cc1[nH]c(=O)n(-c2ccccc2)c1N`, the GI50 in the experiment on RXF 393, with NCI/ADR-RES, with SK-OV-3, in the experiment with M14, in the experiment with HL-60 and in the experiment on UACC-62 was > 10 µM (inactive) in each case. In addition, the GI50 in the experiment on RPMI-8226, in the experiment with SF-268, in the experiment on MOLT-4, in the experiment with EKVX, in the experiment with UO-31 and in the experiment with COLO 205 was > 10 µM (inactive) throughout. For the same compound, the GI50 in the experiment with HCT-116, with OVCAR-8, in the experiment on SK-MEL-28, in the experiment on SF-539, in the experiment with IGROV-1 and with SN12C was > 10 µM (inactive) in each case.

As for `COc1ccc(C(NS(=O)(=O)c2ccc(C)cc2)c2c(C(CBr)OC)c3ccccc3n2S(=O)(=O)c2ccccc2)cc1OC` (stereo not drawn), the GI50 in the experiment on RXF 393, with NCI/ADR-RES, in the experiment on SK-OV-3, with M14, in the experiment on HL-60 and with UACC-62 was > 100 µM (inactive) in each case. For the same compound, the GI50 was > 100 µM (inactive) in the experiment on SF-268; 85.5 µM (inactive) in the experiment with HOP-92; > 100 µM (inactive) in the experiment with MOLT-4; > 100 µM (inactive) in the experiment with EKVX; > 100 µM (inactive) with UO-31; > 100 µM (inactive) in the experiment on COLO 205. Moreover, the GI50 in the experiment on HCT-116, with OVCAR-8, in the experiment on SK-MEL-28, in the experiment on SF-539, in the experiment with IGROV-1 and in the experiment on SN12C was > 100 µM (inactive) in each case. In addition, the GI50 in the experiment on NCI-H522 is > 100 µM (inactive).

On to `CC1=C/C(=N/N2C(=O)/C(=C/c3ccc(Cl)cc3)N=C2c2ccccc2)CC(C)(C)C1`, for which the GI50 with RXF 393 is 91.6 µM (inactive); with NCI/ADR-RES it was 60.7 µM (inactive); in the experiment with SK-OV-3 it was > 100 µM (inactive); in the experiment on M14, > 100 µM (inactive); in the experiment on UACC-62, 61.9 µM (inactive); with RPMI-8226 it was 20.9 µM (inactive). Also, the GI50 with SF-268 is 73.3 µM (inactive); with HOP-92, 94.8 µM (inactive); with MOLT-4, 25 µM (inactive); in the experiment on EKVX it was 81.7 µM (inactive); in the experiment with UO-31, > 100 µM (inactive); with COLO 205, > 100 µM (inactive). Moreover, the GI50 was 91.8 µM (inactive) in the experiment with HCT-116; 32.7 µM (inactive) with OVCAR-8; > 100 µM (inactive) with SK-MEL-28; 47.1 µM (inactive) with SF-539; 52.1 µM (inactive) in the experiment with IGROV-1; > 100 µM (inactive) in the experiment on SN12C. Further, in the experiment with NCI-H522, the GI50 is 30 µM (inactive).

For `CC1(C)N=C(N)N=C(N)N1c1cccc(Cl)c1`, the GI50 was > 100 µM (inactive) in the experiment on RXF 393; 0.681 µM (active) in the experiment with NCI/ADR-RES; > 100 µM (inactive) in the experiment on SK-OV-3; 0.877 µM (active) in the experiment with M14; > 100 µM (inactive) in the experiment on HL-60; 2.88 µM (inactive) in the experiment on UACC-62. Moreover, the GI50 is 1.14 µM (inactive) in the experiment on SF-268; 42.5 µM (inactive) in the experiment on HOP-92; > 100 µM (inactive) with EKVX; 15.5 µM (inactive) in the experiment with UO-31; 5.35 µM (inactive) in the experiment on COLO 205; 0.461 µM (active) with HCT-116. In addition, the GI50 in the experiment with SK-MEL-28 was > 100 µM (inactive); in the experiment on SF-539 it was 4.66 µM (inactive); in the experiment on IGROV-1 it was 4.93 µM (inactive); in the experiment on SN12C it was 10.3 µM (inactive); in the experiment with NCI-H522 it was 5.87 µM (inactive).

As to `CN1CN(c2ccccc2)C2(CCN(C3Nc4ccccc4O3)CC2)C1=O` (stereo not drawn), the GI50 with RXF 393 is 14.5 µM (inactive); in the experiment on NCI/ADR-RES, 20.8 µM (inactive); in the experiment on SK-OV-3 it was 19.6 µM (inactive); in the experiment on M14, 18.5 µM (inactive); with HL-60 it was 12.5 µM (inactive); in the experiment on UACC-62, 16.1 µM (inactive). Further, the GI50 in the experiment with RPMI-8226 is 11.7 µM (inactive); with SF-268, 23.3 µM (inactive); in the experiment with MOLT-4 it was 9.57 µM (inactive); with UO-31, 27.5 µM (inactive); in the experiment on COLO 205, 16.3 µM (inactive); with HCT-116, 16.2 µM (inactive). The GI50 with OVCAR-8 is 26.2 µM (inactive); in the experiment with SK-MEL-28, 23.5 µM (inactive); in the experiment with SF-539, 15.1 µM (inactive); in the experiment with IGROV-1, 22.9 µM (inactive); in the experiment with SN12C, 19.2 µM (inactive); in the experiment with NCI-H522 it was 17.5 µM (inactive).

The values above are taken from ChEMBL document CHEMBL1201862, “PubChem BioAssay data set” (2004).
